Laboratory results as given in patent US20230174523A1, “BENZENESULFONAMIDE DERIVATIVES AS TRAP1 MODULATORS AND USES THEREOF” (Amathus Therapeutics, Inc., priority 2020, published 2023).

Target: T1, TRAP1 enzyme (Homo sapiens, UniProt Q12931)
T1 sequence (Q12931 60-704): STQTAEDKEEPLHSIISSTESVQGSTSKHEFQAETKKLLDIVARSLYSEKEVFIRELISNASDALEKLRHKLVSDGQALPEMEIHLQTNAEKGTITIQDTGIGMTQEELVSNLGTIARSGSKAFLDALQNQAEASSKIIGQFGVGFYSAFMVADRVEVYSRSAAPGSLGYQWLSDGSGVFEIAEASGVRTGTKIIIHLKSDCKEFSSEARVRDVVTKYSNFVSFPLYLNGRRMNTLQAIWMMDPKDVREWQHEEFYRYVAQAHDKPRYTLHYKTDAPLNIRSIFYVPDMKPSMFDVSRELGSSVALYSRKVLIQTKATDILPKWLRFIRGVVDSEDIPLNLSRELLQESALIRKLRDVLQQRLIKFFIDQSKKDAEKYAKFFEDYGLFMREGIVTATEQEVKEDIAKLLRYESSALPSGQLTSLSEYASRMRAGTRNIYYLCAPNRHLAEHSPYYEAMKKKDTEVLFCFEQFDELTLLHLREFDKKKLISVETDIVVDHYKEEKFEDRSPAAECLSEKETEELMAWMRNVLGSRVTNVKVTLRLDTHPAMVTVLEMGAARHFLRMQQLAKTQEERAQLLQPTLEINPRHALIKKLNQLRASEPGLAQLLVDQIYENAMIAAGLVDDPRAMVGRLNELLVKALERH
Assay: Malachite green phosphate assay of TRAP1 ATPase activity
Assay type: biochemical
Settings: for EC50: TRAP1 ATPase activation, 150 nM Trap1, 20 μM ATP, geometric mean, read-out: Malachite Green Fluor DRC: GeoMean EC50; for Emax: read-out: Malachite Green Fluor DRC: Mean Emax
Procedure: The Potency of test compounds to modulate the ATPase activity of TRAP1 enzyme was evaluated using malachite green phosphatase assay. The assay is based on quantification of the green complex formed between Malachite Green, molybdate and inorganic phosphate generated in the phosphatase reaction. Assays were performed using a Malachite Green assay kit. All the assays were carried out in a 96-well transparent plate. The buffer used was 50 mM HEPES (pH 7.5), 20 mM KCl, 4 mM MgCl2 and 0.05% BSA. 150 nM Trap1 enzyme was incubated with various concentrations of the test compound (0.78 μM-100 μM) at 37° C. for 30 mins. 20 μM ATP was added to each well (except blank wells) to start the reaction and the plate was then incubated at 37° C. for 180 mins. 10 μl of the reaction volume of each sample was then transferred to a white 384-well proxiplate in quadruplets. 2.5 μl of Malachite Green reagent was added to all the wells and the plate was equilibrated for 15 mins. The reaction was stopped by adding 12% H2SO4 and the plate was read for fluorescence at 620 nm (λex=573 nm). The amount of phosphate released was estimated from a phosphate standard curve generated at the same experimental conditions. Emax (Maximal percent activation) and EC50 (concentration of test compound for half maximal activation) were estimated by fitting the dose response data to a sigmoidal curve fitting equation using Graphpad Prism software V.7.0.

Structure (SMILES) | EC50 | Emax
COc1ccc(NC(=O)c2cnccc2C(C)C)cc1S(=O)(=O)Nc1ccc(Cl)cc1 [Compound 496] | 20 to 100 µM | 160 to 199%
CN(c1ccc(Br)cc1)S(=O)(=O)c1cc(NC(=O)c2cnc[nH]2)ccc1OCCCCCCO [Compound 342] | 20 to 100 µM | 200 to 300%
O=C(Nc1cccc(S(=O)(=O)N2CCOc3ccccc32)c1)c1ncco1 [Compound 372] | 20 to 100 µM | 160 to 199%
COc1ccc(NC(=O)c2cnc(C(F)(F)F)[nH]2)cc1S(=O)(=O)N(CCCCCN1CCCC1)c1ccc(Br)cc1 [Compound 439] | 20 to 100 µM | 160 to 199%
Cc1ccc2c(c1)CCN2S(=O)(=O)c1cccc(NC(=O)c2ocnc2C)c1 [Compound 407] | 20 to 100 µM | 200 to 300%
CCc1ccc(NC(=O)c2ncn(C)n2)cc1S(=O)(=O)Nc1ccc(Cl)cc1 [Compound 575] | 20 to 100 µM | 160 to 199%
COc1ccc(NC(=O)c2nnc(-c3ccccc3)s2)cc1S(=O)(=O)Nc1ccc(Cl)cc1 [Compound 500] | 10 to 20 µM | 200 to 300%
COc1ccc(NC(=O)c2cnc(-c3ccccc3)o2)cc1S(=O)(=O)Nc1ccc(C(F)(F)F)cc1 [Compound 650] | 20 to 100 µM | 200 to 300%
COc1ccc(NC(=O)c2oc(-c3ccccc3)nc2C)cc1S(=O)(=O)Nc1ccc(Cl)cc1 [Compound 488] | 10 to 20 µM | 200 to 300%
COc1ccc(NC(=O)c2cnc(-c3ccccc3)[nH]2)cc1S(=O)(=O)Nc1ccccc1C [Compound 201] | 10 to 20 µM | 160 to 199%
COc1ccc(NC(=O)c2cnccc2C)cc1S(=O)(=O)Nc1c(C)cccc1C [Compound 471] | 20 to 100 µM | 160 to 199%
O=C(Nc1cccc(S(=O)(=O)N2CCOc3cc(F)ccc32)c1)c1ncco1 [Compound 377] | 20 to 100 µM | 160 to 199%
COc1ccc(NC(=O)c2cnc(-c3ccccc3)[nH]2)cc1S(=O)(=O)N(CCOCCOCCN)c1ccc(Br)cc1 [Compound 637] | 20 to 100 µM | > 300%
O=C(Nc1cccc(S(=O)(=O)Nc2ccc(Br)cc2)c1)c1cnc(-c2ccccc2)[nH]1 [Compound 169] | 10 to 20 µM | 200 to 300%
COc1ccc(NC(=O)c2cnc(C(F)(F)F)[nH]2)cc1S(=O)(=O)N(CCCCCCO)c1ccc(Br)cc1 [Compound 257] | 20 to 100 µM | > 300%
COc1ccc(NC(=O)c2nccs2)cc1S(=O)(=O)Nc1ccc(F)cc1 [Compound 345] | 20 to 100 µM | 200 to 300%
CCCN(c1ccc(Br)cc1)S(=O)(=O)c1cccc(NC(=O)c2ncco2)c1 [Compound 303] | 10 to 20 µM | 160 to 199%
O=C(Nc1cccc(S(=O)(=O)Nc2ccc(Br)cc2)c1)c1ncco1 [Compound 302] | 20 to 100 µM | 160 to 199%
O=C(Nc1ccc(CCO)c(S(=O)(=O)Nc2ccc(Br)cc2)c1)c1ncco1 [Compound 333, N-(3-(N-(4-bromophenyl)sulfamoyl)-4-(2-hydroxyethyl)phenyl) oxazole-2-carboxamide] | 20 to 100 µM | 160 to 199%
COc1ccc(NC(=O)c2cnccc2C(C)C)cc1S(=O)(=O)Nc1ccc(Br)cc1 [Compound 493] | 20 to 100 µM | 160 to 199%
COc1ccc(NC(=O)c2oc(C(F)(F)F)nc2C)cc1S(=O)(=O)Nc1ccc(Br)cc1 [Compound 315] | 10 to 20 µM | 160 to 199%
COc1ccc(NC(=O)c2ncco2)cc1S(=O)(=O)N(CCCCCC(=O)O)c1ccc(Br)cc1 [Compound 250] | 10 to 20 µM | 200 to 300%
COc1ccc(NC(=O)c2cnc(C(F)(F)F)[nH]2)cc1S(=O)(=O)Nc1ccc(Br)cc1 [Compound 105] | 20 to 100 µM | 200 to 300%
COc1ccc(NC(=O)c2ocnc2C)cc1S(=O)(=O)Nc1ccc(Br)cc1 [Compound 299] | 20 to 100 µM | 160 to 199%
COc1ccc(NC(=O)c2ncco2)cc1S(=O)(=O)Nc1ccc(C)cc1 [Compound 307] | 20 to 100 µM | 160 to 199%

Next, values leading:

EC50 | Emax | Structure (SMILES)
10 to 20 µM | 160 to 199% | COc1ccc(NC(=O)c2cnc(-c3ccccc3)o2)cc1S(=O)(=O)Nc1c(Cl)cccc1Cl [Compound 662]
10 to 20 µM | 160 to 199% | Cc1ncoc1C(=O)Nc1cccc(S(=O)(=O)N2CCC(C)(C)c3cc(Cl)ccc32)c1 [Compound 517]
< 10 µM | 160 to 199% | COc1ccc(NC(=O)c2cnc(-c3ccccc3)[nH]2)cc1S(=O)(=O)N1Cc2ccc(F)cc2C1 [Compound 200]
< 10 µM | 160 to 199% | COc1ccc(NC(=O)c2cnc[nH]2)cc1S(=O)(=O)N(CCCCCCN)c1ccc(Br)cc1 [Compound 266, N-(3-(N-(6-aminohexyl)-N-(4-bromophenyl)sulfamoyl)-4-methoxyphenyl)-1H-imidazole-5-carboxamide]
10 to 20 µM | 200 to 300% | COc1ccc(NC(=O)c2cnc(C(F)(F)F)[nH]2)cc1S(=O)(=O)N(CCCCCCBr)c1ccc(Br)cc1 [Compound 262]
10 to 20 µM | 160 to 199% | COc1ccc(NC(=O)c2ccc3cnccc3n2)cc1S(=O)(=O)Nc1c(C)cccc1C [Compound 1047]
10 to 20 µM | 160 to 199% | COc1ccc(NC(=O)c2cnc(-c3ccccc3)o2)cc1S(=O)(=O)Nc1ccc(Br)cc1 [Compound 185]
< 10 µM | 123 to 159% | CCOC(=O)CCCCCN(c1ccc(Br)cc1)S(=O)(=O)c1cc(NC(=O)c2ncco2)ccc1OC [Compound 247]
< 10 µM | 123 to 159% | CCOC(=O)/C=C/c1ccc(NC(=O)c2ncc(-c3ccccc3)o2)cc1S(=O)(=O)Nc1ccc(Cl)cc1 [Compound 634]
10 to 20 µM | 200 to 300% | O=C(Nc1cccc(S(=O)(=O)Nc2ccc(Br)cc2)c1)c1cnc(C(F)(F)F)[nH]1 [Compound 228]
10 to 20 µM | 200 to 300% | CCc1ccc(NC(=O)c2cnc(C(F)(F)F)[nH]2)cc1S(=O)(=O)Nc1ccc(C)cc1 [Compound 270]
< 10 µM | 200 to 300% | COc1ccc(NC(=O)c2cnc(-c3ccccc3)o2)cc1S(=O)(=O)Nc1c(C)cccc1C [Compound 470]
< 10 µM | > 300% | COc1ccc(NC(=O)c2ncco2)cc1S(=O)(=O)N(CCCCCC[P+](c1ccccc1)(c1ccccc1)c1ccccc1)c1ccc(Br)cc1 [Compound 259]
< 10 µM | 160 to 199% | COc1ccc(NC(=O)c2cc3sccc3s2)cc1S(=O)(=O)Nc1c(C)cccc1C [Compound 1051]
10 to 20 µM | 160 to 199% | COc1ccc(NC(=O)c2cnc(C(F)(F)F)[nH]2)cc1S(=O)(=O)Nc1ccccc1 [Compound 223]
< 10 µM | 123 to 159% | O=C(Nc1ccc(F)c(S(=O)(=O)Nc2c(F)cc(Cl)cc2F)c1)c1ncc(-c2ccccc2)o1 [Compound 503]
10 to 20 µM | > 300% | COc1ccc(NC(=O)c2cnc(-c3ccccc3)[nH]2)cc1S(=O)(=O)N(CCCCCC(=O)O)c1ccc(Br)cc1 [Compound 243, 6-((N-(4-bromophenyl)-2-methoxy-5-(2-phenyl-1H-imidazole-5-carboxamido)phenyl)sulfonamido) hexanoic acid]
< 10 µM | 123 to 159% | COc1ccc(NC(=O)c2nnc(-c3ccccc3)o2)cc1S(=O)(=O)Nc1ccc(Cl)cc1 [Compound 424]
< 10 µM | 123 to 159% | COc1ccc(NC(=O)c2ncc(-c3ccccc3)o2)cc1S(=O)(=O)Nc1c(Cl)cccc1Cl [Compound 451]
< 10 µM | 123 to 159% | COc1ccc(NC(=O)c2cnc(C(F)(F)F)[nH]2)cc1S(=O)(=O)Nc1ccccc1C [Compound 232]
< 10 µM | 200 to 300% | COc1ccc(NC(=O)c2cnc(-c3ccccc3)[nH]2)cc1S(=O)(=O)N(CCCCCC[P+](c1ccccc1)(c1ccccc1)c1ccccc1)c1ccc(Br)cc1 [Compound 242]
< 10 µM | 160 to 199% | COc1ccc(NC(=O)c2ncc(-c3ccccc3)o2)cc1S(=O)(=O)Nc1c(C)cccc1C [Compound 423]
< 10 µM | 160 to 199% | COc1ccc(NC(=O)c2ncc(-c3ccccc3)o2)cc1S(=O)(=O)Nc1ccc(Cl)cc1 [Compound 369]
